The text below walks through data of patent US20220306695A1, “COMPSTATIN ANALOGUES AND THEIR MEDICAL USES” (priority 2019, published 2022).

Broadly, the IC50 is the concentration that gives 50% inhibition.

The test concerns classical complement pathway. In words: In vitro haemolysis assay (inhibition of classical complement pathway). Type of test: cell-based, human. The gist of the method: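 Serially diluted compound (9 points) was preincubated 15 min at room temperature with diluted human serum, titrated per batch to give 70-90% maximal haemolysis, in Tris/casein buffer pH 7.4 with Mg2+/Ca2+. Antibody-sensitized sheep erythrocytes were then added for 30 min at 37° C, and the reaction was stopped with EDTA. Haemolysis was read at A405, with IC50 from 4PL fit.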

[1] abbreviates: Table 3, human serum, sensitized sheep red blood cells, read-out: IC50[nM], in vitro analysis of inhibition of hemolysis.

Read-outs that look alike come from different tables or passages of the source. Starred links: 1 amine or outer side, 2 acyl side, 3 side chain; linkers in the order of their positions; H or OH if unused. Positions of bridges follow the written chain, without caps; N, C: chain ends. Non-standard residues stand in square brackets, D forms with d. Residues, ends and D or L forms follow the SMILES beside them. Groups on a side chain read outwards from the residue. *: point of attachment. Trp(1-Me) = Cn1cc(C[C@H](N)C(=O)O)c2ccccc21; Abu(4-yl) = O=C([C@H](CC[*:3])N[*:1])[*:2]; C18 diacid = O=C(O)CCCCCCCCCCCCCCCCC(=O)*; γGlu = O=C(O)[C@H](CCC(=O)[*:2])N[*:1]; AEEA = NCCOCCOCC(=O)O; Sar = CNCC(=O)O

For `CC[C@H](C)[C@H](NC(=O)[C@H](C)NC(=O)[C@H](CO)NC(=O)CNC(=O)[C@H](CCC(=O)O)NC(C)=O)C(=O)N[C@H]1CSSC[C@@H](C(=O)N[C@H](C(N)=O)[C@@H](C)O)NC(=O)[C@H](CCCNC(=N)N)NC(=O)[C@H](Cc2c[nH]cn2)NC(=O)[C@H](CCC(=O)O)NC(=O)CNC(=O)[C@H](Cc2c[nH]c3ccccc23)NC(=O)[C@H](CC(=O)O)NC(=O)[C@H](CCC(N)=O)NC(=O)[C@H](Cc2c[nH]c3ccccc23)NC(=O)[C@H]([C@@H](C)CC)NC1=O` [Compound 29] (Ac-EGSAICIWQDWGEHRCT-NH2; disulfide 6-16), the IC50 under setting [1] is under 100 nM.

For `CC[C@H](C)[C@@H]1NC(=O)[C@@H](NC(=O)[C@H](Cc2ccc(O)cc2)NC(=O)[C@H](CCC(=O)O)NC(=O)[C@H](CO)NC(C)=O)CSSC[C@@H](C(=O)N(C)CC(=O)N[C@@H](CCC(=O)O)C(=O)NCC(=O)N[C@@H](C)C(=O)N[C@@H](CCCCNC(=O)CC[C@H](NC(=O)CNC(=O)CC[C@H](NC(=O)CCCCCCCCCCCCCCCCC(=O)O)C(=O)O)C(=O)O)C(N)=O)NC(=O)[C@H](CCCNC(=N)N)NC(=O)[C@H](Cc2c[nH]cn2)NC(=O)[C@H](CCC(=O)O)NC(=O)CNC(=O)[C@H](Cc2c[nH]c3ccccc23)NC(=O)[C@H](CC(=O)O)NC(=O)[C@H](CCC(N)=O)NC(=O)[C@H](Cc2cn(C)c3ccccc23)NC1=O` [Compound 112] (Ac-SEYCI[Trp(1-Me)]QDWGEHRC[Sar]EGAK([γGlu-Gly-γGlu-C18 diacid])-NH2; disulfide 4-14), under setting [1], the IC50 was under 500 nM.

For the compound `CC[C@H](C)[C@H](NC(C)=O)C(=O)N[C@H]1CSSC[C@@H](C(=O)N[C@H](C(N)=O)[C@@H](C)O)NC(=O)[C@H](CCCNC(=N)N)NC(=O)[C@H](Cc2c[nH]cn2)NC(=O)[C@H](CCC(=O)O)NC(=O)CNC(=O)[C@H](Cc2c[nH]c3ccccc23)NC(=O)[C@H](CC(=O)O)NC(=O)[C@H](CCC(N)=O)NC(=O)[C@H](Cc2c[nH]c3ccccc23)NC(=O)[C@H](C(C)C)NC1=O` [A, reference compound] (Ac-ICVWQDWGEHRCT-NH2; disulfide 2-12), the IC50 by setting is: (Table 4, valine 3 versus isoleucine 3 pairs, read-out: CP hemolysis IC50) 350 nM; (Table 5, different residues at position 3 of Ac-IC(1)XWQDWGEHRC(1)T-NH2, read-out: IC50, CP hemolysis) 350 nM.

Regarding `CC[C@H](C)[C@@H]1NC(=O)[C@@H](NC(=O)[C@H](Cc2ccccc2)NC(=O)[C@H](CCC(=O)O)NC(=O)CNC(C)=O)CSCC[C@@H](C(=O)N(C)CC(=O)N[C@@H](CCC(=O)O)C(=O)NCC(=O)N[C@@H](CCC(=O)O)C(=O)NCCOCCOCC(=O)N[C@@H](CCC(=O)O)C(=O)N[C@@H](CO)C(=O)N[C@@H](CCCCNC(=O)CC[C@H](NC(=O)CNC(=O)CC[C@H](NC(=O)CCCCCCCCCCCCCCCCC(=O)O)C(=O)O)C(=O)O)C(N)=O)NC(=O)[C@H](CCCNC(=N)N)NC(=O)[C@H](Cc2c[nH]cn2)NC(=O)[C@H](CCC(=O)O)NC(=O)CNC(=O)[C@H](Cc2c[nH]c3ccccc23)NC(=O)[C@H](CCC(=O)O)NC(=O)[C@H](CCC(N)=O)NC(=O)[C@H](Cc2cn(C)c3ccccc23)NC1=O` [Compound 155, Ac-GEFA(1)I[1-Me-Trp]QEWGEHRhC(1)[Sar]EGE[Peg3]ES-K([17-carboxy-heptadecanoyl][γGlu]G[γGlu])-NH2] (Ac-GEFCI[Trp(1-Me)]QEWGEHR[Abu(4-yl)][Sar]EGE[AEEA]ESK([γGlu-Gly-γGlu-C18 diacid])-NH2; thioether 4-14), the IC50 under setting [1] is under 100 nM.

As for `CC[C@H](C)[C@@H]1NC(=O)[C@@H](NC(=O)[C@@H](NC(=O)[C@H](CCCCN)NC(=O)[C@H](CCC(=O)O)NC(=O)[C@H](CCCCN)NC(C)=O)[C@@H](C)CC)CSSC[C@@H](C(=O)N[C@H](C(=O)N[C@@H](CCC(=O)O)C(=O)N[C@@H](CCCCN)C(=O)N[C@@H](CCC(=O)O)C(N)=O)[C@@H](C)O)NC(=O)[C@H](CCCNC(=N)N)NC(=O)[C@H](Cc2c[nH]cn2)NC(=O)[C@H](CCC(=O)O)NC(=O)CNC(=O)[C@H](Cc2c[nH]c3ccccc23)NC(=O)[C@H](CC(=O)O)NC(=O)[C@H](CCC(N)=O)NC(=O)[C@H](Cc2c[nH]c3ccccc23)NC1=O` [Compound 37] (Ac-KEKICIWQDWGEHRCTEKE-NH2; disulfide 5-15), the IC50 under setting [1] was under 250 nM.
